Results: article PMC6563162 (Viruses, 2019)

Assays:
Test in all cases: flow cytometry, inhibition of purified knob binding to HCE cells
Format in all cases: cell-based
Settings in all cases: knob preincubated with ME0462, 1 h, 4 °C; human corneal epithelial cells
HAdV-D54 fiber knob = target: T1, HAdV-D54 fiber knob (Human adenovirus 54, UniProt B9A5P2)
T1 construct: gene L5

HAdV-D8/53 fiber knob = target: T2, HAdV-D8/53 fiber knob (Human adenovirus D8, UniProt P36845)
T2 construct: gene L5

HAdV-D37/64 fiber knob = target: T3, HAdV-D37/64 fiber knob (Human adenovirus D37, UniProt Q64823)
T3 construct: gene L5; N-terminal RGS-His tag kept (pQE30-Xa); E. coli M15; Ni-NTA and Q-sepharose

Substance: ME0462
- % inhibition at 80 μM (HAdV-D54 fiber knob): 60%
- % inhibition at 80 μM (HAdV-D8/53 fiber knob): 60%
- % inhibition at 80 μM (HAdV-D37/64 fiber knob): 70%
